# Reference: patent US9884842B2, “Combretastatin analogs” (The Board of Trustees of the University of Arkansas, priority 2013, dated 2018)
# Experiments:
# NCI-H522 = assay: NCI growth inhibition and cytotoxicity screen, Lung Cancer panel; format: cell-based; conditions: Homo sapiens, Table 2, cell line NCI-H522 (Lung Cancer); for CC50: read-out: LC50 (the source's name)
# HL-60(TB) = assay: cells; conditions: Homo sapiens; for GI50: HL-60; for CC50: HL-60, read-out: LC50
# OVCAR-3 = assay: cells; conditions: Homo sapiens; for GI50: OVCAR-3; for CC50: OVCAR-3, read-out: LC50
# CCRF-CEM = assay: NCI growth inhibition and cytotoxicity screen, Leukemia panel; conditions: Homo sapiens; for CC50: read-out: LC50
# MOLT-4 = assay: as above; conditions: Homo sapiens; for GI50: MOLT-4; for CC50: MOLT-4, read-out: LC50
# RPMI-8226 = assay: as above; conditions: Homo sapiens; for GI50: RPMI-8226; for CC50: RPMI-8226, read-out: LC50
# LOX-IMVI = assay: NCI growth inhibition and cytotoxicity screen, Melanoma panel; conditions: Homo sapiens; for CC50: read-out: LC50
# M14 = assay: as above; conditions: Homo sapiens; for GI50: M14; for CC50: M14, read-out: LC50
# SK-MEL-28 = assay: as above; conditions: Homo sapiens; for GI50: SK-MEL-28; for CC50: SK-MEL-28, read-out: LC50
# SF-539 = assay: NCI growth inhibition and cytotoxicity screen, CNS Cancer panel; conditions: Homo sapiens; for GI50: SF-539; for CC50: SF-539, read-out: LC50
# SNB-19 = assay: as above; conditions: Homo sapiens; for GI50: SNB-19; for CC50: SNB-19, read-out: LC50
# SNB-75 = assay: as above; conditions: Homo sapiens; for GI50: SNB-75; for CC50: SNB-75, read-out: LC50
# A549/ATCC = assay: NCI growth inhibition and cytotoxicity screen, Lung Cancer panel; conditions: Homo sapiens; for GI50: A549; for CC50: A549, read-out: LC50
# HOP-62 = assay: as above; conditions: Homo sapiens; for GI50: HOP-62; for CC50: HOP-62, read-out: LC50
# HOP-92 = assay: as above; conditions: Homo sapiens; for GI50: HOP-92; for CC50: HOP-92, read-out: LC50
# NCI-H226 = assay: as above; conditions: Homo sapiens; for GI50: NCI-H226; for CC50: NCI-H226, read-out: LC50
# NCI-H23 = assay: as above; conditions: Homo sapiens; for GI50: NCI-H23; for CC50: NCI-H23, read-out: LC50
# COLO 205 = assay: NCI growth inhibition and cytotoxicity screen, Colon Cancer panel; conditions: Homo sapiens; for CC50: COLO 205, read-out: LC50
# HCC-2998 = assay: as above; conditions: Homo sapiens; for GI50: HCC 2998; for CC50: HCC 2998, read-out: LC50
# HCT-116 = assay: as above; conditions: Homo sapiens; for GI50: HCT-116; for CC50: HCT-116, read-out: LC50
# KM12 = assay: as above; conditions: Homo sapiens; for GI50: KM12; for CC50: KM12, read-out: LC50
# SW-620 = assay: as above; conditions: Homo sapiens; for GI50: SW-620; for CC50: SW-620, read-out: LC50
# 786-0 = assay: NCI growth inhibition and cytotoxicity screen, Renal Cancer panel; conditions: Homo sapiens; for GI50: 786-0; for CC50: 786-0, read-out: LC50
# SN12C = assay: as above; conditions: Homo sapiens; for CC50: read-out: LC50
# UO-31 = assay: as above; conditions: Homo sapiens; for GI50: UO-31; for CC50: UO-31, read-out: LC50
# HS 578T = assay: NCI growth inhibition and cytotoxicity screen, Breast Cancer panel; conditions: Homo sapiens; for CC50: read-out: LC50
# BT-549 = assay: as above; conditions: Homo sapiens; for GI50: BT-549; for CC50: BT-549, read-out: LC50
# T-47D = assay: as above; conditions: Homo sapiens, T47D; for CC50: read-out: LC50
# IGROV1 = assay: NCI growth inhibition and cytotoxicity screen, Ovarian Cancer panel; conditions: Homo sapiens; for GI50: IGROV-1; for CC50: IGROV-1, read-out: LC50
# NCI/ADR-RES = assay: as above; conditions: Homo sapiens; for CC50: read-out: LC50
# SK-OV-3 = assay: as above; conditions: Homo sapiens; for GI50: SK-OV-3; for CC50: SK-OV-3, read-out: LC50
# PC-3 = assay: NCI growth inhibition and cytotoxicity screen, Prostate Cancer panel; conditions: Homo sapiens; for GI50: PC-3; for CC50: PC-3, read-out: LC50
structure (smiles),measurement,setting,value
"COc1cc(/C(C#N)=C/c2ccc3ccccc3n2)cc(OC)c1OC [PNR-4-90, (Z)-3-(quinolin-2-yl)-2-(3,4,5-trimethoxyphenyl)acrylonitrile]",GI50,NCI-H522,0.0372 µM
same,CC50,NCI-H522,> 100 µM
same,GI50,HL-60(TB),0.223 µM
same,CC50,HL-60(TB),> 100 µM
same,GI50,OVCAR-3,0.163 µM
same,CC50,OVCAR-3,54.9 µM
same,GI50,CCRF-CEM,0.248 µM
same,CC50,CCRF-CEM,> 100 µM
same,GI50,MOLT-4,0.488 µM
same,CC50,MOLT-4,> 100 µM
same,GI50,RPMI-8226,0.297 µM
same,CC50,RPMI-8226,> 100 µM
same,GI50,LOX-IMVI,0.766 µM
same,CC50,LOX-IMVI,> 100 µM
same,GI50,M14,0.173 µM
same,CC50,M14,> 100 µM
same,GI50,SK-MEL-28,0.518 µM
same,CC50,SK-MEL-28,> 100 µM
same,GI50,SF-539,0.197 µM
same,CC50,SF-539,14.9 µM
same,GI50,SNB-19,0.578 µM
same,CC50,SNB-19,> 100 µM
same,GI50,SNB-75,0.182 µM
same,CC50,SNB-75,98.8 µM
same,GI50,A549/ATCC,0.375 µM
same,CC50,A549/ATCC,> 100 µM
same,GI50,HOP-62,0.567 µM
same,CC50,HOP-62,> 100 µM
same,GI50,HOP-92,0.736 µM
same,CC50,HOP-92,> 100 µM
same,GI50,NCI-H226,4.78 µM
same,CC50,NCI-H226,> 100 µM
same,GI50,NCI-H23,0.751 µM
same,CC50,NCI-H23,> 100 µM
same,GI50,COLO 205; COLO 205,0.198 µM
same,CC50,COLO 205,32.7 µM
same,GI50,HCC-2998,0.61 µM
same,CC50,HCC-2998,> 100 µM
same,GI50,HCT-116,0.234 µM
same,CC50,HCT-116,> 100 µM
same,GI50,KM12,0.35 µM
same,CC50,KM12,> 100 µM
same,GI50,SW-620,0.164 µM
same,CC50,SW-620,> 100 µM
same,GI50,786-0,0.445 µM
same,CC50,786-0,> 100 µM
same,GI50,SN12C,0.627 µM
same,CC50,SN12C,> 100 µM
same,GI50,UO-31,0.762 µM
same,CC50,UO-31,> 100 µM
same,GI50,HS 578T,0.689 µM
same,CC50,HS 578T,> 100 µM
same,GI50,BT-549,0.315 µM
same,CC50,BT-549,> 100 µM
same,GI50,T-47D,4.76 µM
same,CC50,T-47D,> 100 µM
same,GI50,IGROV1,0.846 µM
same,CC50,IGROV1,> 100 µM
same,GI50,NCI/ADR-RES,0.112 µM
same,CC50,NCI/ADR-RES,> 100 µM
same,GI50,SK-OV-3,0.524 µM
same,CC50,SK-OV-3,> 100 µM
same,GI50,PC-3,0.348 µM
same,CC50,PC-3,> 100 µM
"COc1cc(/C(C#N)=C/c2cnc3ccccc3c2)cc(OC)c1OC [PNR-5-10, (Z)-3-(quinolin-3-yl)-2-(3,4,5-trimethoxyphenyl)acrylonitrile]",GI50,NCI-H522,0.299 µM
same,CC50,NCI-H522,> 100 µM
same,GI50,HL-60(TB),329 µM
same,CC50,HL-60(TB),> 100 µM
same,GI50,OVCAR-3,0.263 µM
same,CC50,OVCAR-3,> 100 µM
same,GI50,CCRF-CEM,1.38 µM
same,CC50,CCRF-CEM,> 100 µM
same,GI50,MOLT-4,3.2 µM
same,CC50,MOLT-4,> 100 µM
same,GI50,RPMI-8226,2.06 µM
same,CC50,RPMI-8226,> 100 µM
same,GI50,LOX-IMVI,0.645 µM
same,CC50,LOX-IMVI,> 100 µM
same,GI50,M14,0.54 µM
same,CC50,M14,> 100 µM
same,GI50,SK-MEL-28,3.27 µM
same,CC50,SK-MEL-28,> 100 µM
same,GI50,SF-539,0.361 µM
same,CC50,SF-539,> 100 µM
same,GI50,SNB-19,5.23 µM
same,CC50,SNB-19,> 100 µM
same,GI50,SNB-75,1.49 µM
same,CC50,SNB-75,> 100 µM
same,GI50,A549/ATCC,0.68 µM
same,CC50,A549/ATCC,> 100 µM
same,GI50,HOP-62,10.3 µM
same,CC50,HOP-62,> 100 µM
same,GI50,HOP-92,0.403 µM
same,CC50,HOP-92,> 100 µM
same,GI50,NCI-H226,> 100 µM
same,CC50,NCI-H226,> 100 µM
same,GI50,NCI-H23,2.93 µM
same,CC50,NCI-H23,> 100 µM
same,CC50,COLO 205,9.44 µM
same,GI50,HCC-2998,2.01 µM
same,CC50,HCC-2998,> 100 µM
same,GI50,HCT-116,0.464 µM
same,CC50,HCT-116,> 100 µM
same,GI50,KM12,0.436 µM
same,CC50,KM12,> 100 µM
same,GI50,SW-620,0.42 µM
same,CC50,SW-620,> 100 µM
same,GI50,786-0,6.29 µM
same,CC50,786-0,> 100 µM
same,GI50,SN12C,1.94 µM
same,CC50,SN12C,> 100 µM
same,GI50,UO-31,0.58 µM
same,CC50,UO-31,> 100 µM
same,GI50,HS 578T,1.31 µM
same,CC50,HS 578T,> 100 µM
same,GI50,BT-549,1.43 µM
same,CC50,BT-549,> 100 µM
same,GI50,T-47D,9.54 µM
same,CC50,T-47D,> 100 µM
same,GI50,IGROV1,3.15 µM
same,CC50,IGROV1,> 100 µM
same,GI50,NCI/ADR-RES,0.343 µM
same,CC50,NCI/ADR-RES,> 100 µM
same,GI50,SK-OV-3,1.34 µM
same,CC50,SK-OV-3,> 100 µM
same,GI50,PC-3,1.08 µM
same,CC50,PC-3,> 100 µM
